Columns and labels:
[1] = cited from earlier work
insulin secretion = assay: Alternating bolus injections of GLP-1 and exendin-4 via left atrial catheter in anesthetized dogs; conditions: after normalization of hyperglycemia and in euglycemic state
Method: GLP-1(7-36) amide was given at time 0 (0.1 nmol) and at 40 min (1 nmol).

Row | Compound | meal-related increases in blood glucose concentration and plasma insulin and glucagon ([1]; normal subjects, infusion) | lowering of the insulin required ([1]; patients with IDDM) | reduction of the requirement for insulin ([1]; patients with NIDDM) [fold] | hypoglycemia (insulin secretion)
1 | glucagon-like insulinotropic peptide [GLIP] | significantly lowered | one half | 8 | –
2 | CC[C@H](C)[C@H](NC(=O)[C@H](Cc1ccccc1)NC(=O)[C@H](CCC(=O)O)NC(=O)[C@H](CCCCN)NC(=O)[C@H](C)NC(=O)[C@H](C)NC(=O)[C@H](CCC(N)=O)NC(=O)CNC(=O)[C@H](CCC(=O)O)NC(=O)[C@H](CC(C)C)NC(=O)[C@H](Cc1ccc(O)cc1)NC(=O)[C@H](CO)NC(=O)[C@H](CO)NC(=O)[C@@H](NC(=O)[C@H](CC(=O)O)NC(=O)[C@H](CO)NC(=O)[C@@H](NC(=O)[C@H](Cc1ccccc1)NC(=O)[C@@H](NC(=O)CNC(=O)[C@H](CCC(=O)O)NC(=O)[C@H](C)NC(=O)[C@@H](N)Cc1c[nH]cn1)[C@@H](C)O)[C@@H](C)O)C(C)C)C(=O)N[C@@H](C)C(=O)N[C@@H](Cc1c[nH]c2ccccc12)C(=O)N[C@@H](CC(C)C)C(=O)N[C@H](C(=O)N[C@@H](CCCCN)C(=O)NCC(=O)N[C@@H](CCCNC(=N)N)C(N)=O)C(C)C [GLP-1, glucagon-like peptide-1] | – | – | – | hypoglycemia does not occur

From patent US5424286A (priority 1993, dated 1995)
